{"source": "patent US20110165226A1", "about": "“INFLUENZA CAP-LEADER SEQUENCE” (priority 2008, published 2011)", "test_system": "Influenza virus strain A/Puerto Rico/8/34 (H1/N1)", "format": "biochemical"}
{"substance": "C9A10G11C12: leader length construct, CAGC within oligo U stretch, first base pairing A at position 10 (DNA CGACTCACTATAGTATTTTTCAGCTTTTTTTTTTCAAAATATTCCAAT; chemistry not fully specified; the letters are possibly those of the target site)", "values": [{"measurement": "transcripts containing capped leaders originating from the mutant", "result": 9, "unit": "transcripts"}]}
{"substance": "C10A11G12C13: leader length construct, CAGC within oligo U stretch, first base pairing A at position 11 (DNA CGACTCACTATAGTATTTTTTCAGCTTTTTTTTTCAAAATATTCCAAT; chemistry not fully specified; the letters are possibly those of the target site)", "values": [{"measurement": "transcripts containing capped leaders originating from the mutant", "result": 5, "unit": "transcripts"}]}
